Measurements taken from PubChem BioAssay (NCI).
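Following 48 hours of exposure in 96-well plates, responses at five concentrations were used to interpolate endpoints linearly. At the GI50, growth is halved. TGI: total growth inhibition.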

Columns and labels:
Test in all cases: NCI tumour cell line growth inhibition, 48 h
UO-31 renal = test system: UO-31 renal
NCI-H460 lung = test system: NCI-H460 lung
ACHN renal = test system: ACHN renal
CCRF-CEM leukemia = test system: CCRF-CEM leukemia
SK-MEL-5 melanoma = test system: SK-MEL-5 melanoma
RXF 393 renal = test system: RXF 393 renal
786-0 renal = test system: 786-0 renal
OVCAR-5 ovarian = test system: OVCAR-5 ovarian
HCC-2998 colon = test system: HCC-2998 colon
MALME-3M melanoma = test system: MALME-3M melanoma

Row | SMILES | TGI (UO-31 renal) | TGI (NCI-H460 lung) | TGI (ACHN renal) | TGI (CCRF-CEM leukemia) | TGI (SK-MEL-5 melanoma) | TGI (RXF 393 renal) | TGI (786-0 renal) | TGI (OVCAR-5 ovarian) | TGI (HCC-2998 colon) | TGI (MALME-3M melanoma) | GI50 (UO-31 renal) | GI50 (MALME-3M melanoma) | GI50 (NCI-H460 lung) | GI50 (ACHN renal) | GI50 (CCRF-CEM leukemia) | GI50 (SK-MEL-5 melanoma) | GI50 (RXF 393 renal) | GI50 (786-0 renal) | GI50 (OVCAR-5 ovarian) | GI50 (HCC-2998 colon)
1 | CCN(CC)/[N+]([O-])=N/OCC(C)O (stereo not drawn) | > 100 µM | > 100 µM | > 100 µM | > 100 µM | > 100 µM | > 100 µM | > 100 µM | > 100 µM | > 100 µM |  |  |  |  |  |  |  |  |  |  | 
2 | COC(=O)c1ccc(/C=C/S(=O)(=O)c2ccccc2)cc1 | > 100 µM | > 100 µM | > 100 µM | > 100 µM | > 100 µM | > 100 µM | > 100 µM | > 100 µM |  | > 100 µM |  |  |  |  |  |  |  |  |  | 
3 | C#CCN(Cc1nc2cc(C(F)(F)F)ccc2nc1-c1ccccc1)c1ccc(F)cc1 | > 100 µM | > 100 µM | > 100 µM | > 100 µM | 33.3 µM | > 100 µM | 54 µM | > 100 µM |  | 53.5 µM | 31.2 µM | 17.9 µM | 27.8 µM | 36 µM | 27.1 µM | 16.8 µM | 41 µM | 20.4 µM | 75.6 µM | 
4 | N#CC(C(=O)O)C(c1c(Cl)cccc1Cl)C(C#N)C(=O)O (stereo not drawn) | > 100 µM | > 100 µM | > 100 µM |  | > 100 µM |  | > 100 µM | > 100 µM |  | > 100 µM |  |  |  |  |  |  |  |  |  | 
5 | COc1cc2c(cc1OC)-c1ncc3cc(OC)c(OC)c(OC)c3c1C2 | 53.6 µM | > 100 µM | > 100 µM |  | 3.05 µM | 85.8 µM | > 100 µM | > 100 µM | 95.8 µM |  | 5.49 µM |  | 31.6 µM | 32 µM |  | 1.68 µM | 23.2 µM | 40 µM | 57.3 µM | 26 µM
6 | CCCCCN(CCCCC)C(=O)[C@H](CCC(=O)OCc1ccccc1)NC(=O)c1cc2ccccc2[nH]1 | > 100 µM | > 100 µM | > 100 µM | > 100 µM |  | > 100 µM | > 100 µM | > 100 µM | > 100 µM | > 100 µM |  |  |  |  |  |  |  |  |  | 
7 | Nc1nc(CC2(O)CCCCC2)cc(-c2ccccc2)n1 | > 91.6 µM | > 66 µM | > 100 µM | > 95.9 µM | > 57.4 µM | > 57.5 µM | 43.2 µM | 54.4 µM | > 81 µM |  |  |  |  |  |  |  |  |  |  | 
8 | CCN(CC)CCOc1ccc(Cc2ccccc2)cc1 | > 100 µM | 62.1 µM | > 100 µM |  | 28.5 µM | 88.8 µM | > 100 µM | > 100 µM | > 100 µM | 43.1 µM | 18.4 µM | 17.2 µM | 22.9 µM | 47.2 µM |  | 15.1 µM | 24.8 µM | 27.6 µM | 28.5 µM | 38.7 µM
9 | O=C(O)CNC(=O)C1NC(C(F)(F)F)(C(F)(F)F)OC1(C(F)(F)F)C(F)(F)F (stereo not drawn) | > 100 µM | > 100 µM | > 100 µM |  | > 100 µM | > 100 µM | > 100 µM | > 100 µM |  | > 100 µM |  |  |  |  |  |  |  |  |  | 
10 | CC1(C)Oc2ccccc2[N+]([O-])=C1c1ccccc1 | > 100 µM | > 100 µM | > 100 µM | > 100 µM | > 100 µM | > 100 µM | > 100 µM |  | > 100 µM | > 100 µM |  |  |  |  |  |  |  |  |  | 
11 | [N-]=[N+]=NC1C2CC3CC(C2)CC1C3 (stereo not drawn) | > 100 µM | > 100 µM | > 100 µM | > 100 µM | > 100 µM |  | > 100 µM | > 100 µM | > 100 µM | > 100 µM |  |  |  |  |  |  |  |  |  | 
12 | COc1ccc(C(=O)c2cc(C)c(OC)c(C)c2)c(OC)c1N(C(=O)CCl)C(=O)CCl | 24.9 µM | 1.3 µM | 36.7 µM | > 37.8 µM | 1.96 µM |  | 15.4 µM | > 53.6 µM | 7.35 µM | 25.4 µM | 0.0829 µM | 0.0667 µM | 0.0386 µM | 0.0773 µM | 0.166 µM | 0.0554 µM |  | 0.0474 µM | 0.101 µM | 0.0803 µM
13 | CN[C@H]1CC[C@]23C[C@]24CC[C@]2(C)[C@@H]([C@H](C)N(C)C)CC[C@@]2(C)[C@@H]4CC[C@H]3C1(C)C | 24.5 µM | 37.2 µM | 31 µM | 98.8 µM | 29.4 µM |  | 19.8 µM | 60.7 µM | 28.7 µM | 32.6 µM |  |  |  |  |  |  |  |  |  | 
